Source: US6737383B1, “Herbicidal oxadiazolidines” (priority 1999, dated 2004)

Columns and labels:
Conditions in all cases: Preemergence, 0 to 100 scale
[1] = tested on: surinam grass; test: Test D surinam grass; assay type: in vivo, Brachiaria decumbens
Summary of the method: (§1)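 Greenhouse pots, sandy loam, single species per pot. Preemergence tests: soil-surface application ≤1 day after planting. Compound formulated in non-phytotoxic solvent with surfactant. Visual rating 14–21 DAT, scale 0–100.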

[2] = tested on: pitted morningglory; test: Test D pitted morningglory; assay type: in vivo, Ipomoea lacunosa
Summary of the method: as §1

[3] = tested on: common ragweed; test: Test D common ragweed; assay type: in vivo, Ambrosia elatior
Summary of the method: as §1

[4] = tested on: common pursiane; test: Test D common purslane; assay type: in vivo, Portulaca oleracea
Source text: (§2) Seeds, tubers, or plant parts of Alexandergrass (Brachiaria plantaginea), bermuda-grass (Cynodon dactylon), common pursiane (Portulaca oleracea), common ragweed (Ambrosia elatior), common groundsel (Senecio vulgaris), dallisgrass (Paspalum dilatatum), goosegrass (Eleusine indica), guineagrass (Panicum maximum), itchgrass (Rottboellia exaltata), Johnson grass (Sorghum halepense), large crabgrass (Digitaria sanguinalis), pitted morningglory (Ipomoea lacunosa), purple nutsedge (Cyperus rotundus), sandbur (Cenchrus echinatus), sourgrass (Trichachne insularis), Spanishneedles (Bidens bipinnata), surinam grass (Brachiaria decumbens) and tall mallow (Malva sylvestris) were planted into greenhouse pots of flats containing greenhouse planting medium. Plant species were grown in separate pots or individual compartments. Preemergence applications were made within one day of planting the seed or plant part.
(§3) Test chemicals were formulated in a non-phytotoxic solvent mixture which included a surfactant and applied preemergence to the surface of the pot containing seeds in a sandy loam soil. Untreated control pots and treated pots were placed in the greenhouse for growth and visually evaluated for injury 14 to 21 days after herbicide application. Plant response ratings, summarized in Table C, are based on a 0 to 100 scale where 0 is no injury and 100 is complete control. A dash (−) response means no test result.

[5] = tested on: large crabgrass; test: Test D large crabgrass; assay type: in vivo, Digitaria sanguinalis
Summary of the method: as §1

[6] = tested on: sandbur; test: Test D sandbur; assay type: in vivo, Cenchrus echinatus
Source text: as §2, §3

[7] = tested on: Johnson grass; test: Test D Johnson grass; assay type: in vivo, Sorghum halepense
Summary of the method: as §1

[8] = tested on: tall mallow; test: Test D tall mallow; assay type: in vivo, Malva sylvestris
Summary of the method: as §1

[9] = tested on: common groundsel; test: Test D common groundsel; assay type: in vivo, Senecio vulgaris
Summary of the method: as §1

[10] = tested on: purple nutsedge; test: Test D purple nutsedge; assay type: in vivo, Cyperus rotundus
Source text: as §2, §3

[11] = tested on: goosegrass; test: Test D goosegrass; assay type: in vivo, Eleusine indica
Source text: as §2, §3

[12] = tested on: Spanishneedles; test: Test D Spanishneedles; assay type: in vivo, Bidens bipinnata
Summary of the method: as §1

[13] = tested on: guineagrass; test: Test D guineagrass; assay type: in vivo, Panicum maximum
Source text: as §2, §3

[14] = tested on: itchgrass; test: Test D itchgrass; assay type: in vivo, Rottboellia exaltata
Summary of the method: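 Scoring used a 0–100 visual injury scale, with 0 meaning no effect and 100 complete control, assessed 14–21 days after application alongside untreated pots. Preemergence treatments went onto sandy loam surfaces of separately potted seeds within a day of sowing.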

[15] = tested on: Alexandergrass; test: Test D Alexandergrass; assay type: in vivo, Brachiaria plantaginea
Source text: as §2, §3

[16] = Rate 16 g/ha, 0 no injury, 100 complete control
[17] = Rate 32 g/ha, 0 no injury, 100 complete control
[18] = Rate 64 g/ha, 0 no injury, 100 complete control
[19] = Rate 125 g/ha, 0 no injury, 100 complete control

SMILES: CC(C)N(C(=O)n1oc(=O)n(N(C)C)c1=O)c1ccc(F)cc1 [Compound 170]
- Plant response rating, Surinam grass [1, 16]: 0
- Plant response rating, Surinam grass [1, 17]: 0
- Surinam grass plant response rating [1, 18]: 30
- Surinam grass plant response rating [1, 19]: 75
- Plant response rating, Surinam grass ([1]; Rate 250 g/ha): 100
- Plant response rating, Surinam grass ([1]; Rate 500 g/ha): 100
- Plant response rating, P. morninglory [2, 16]: 20
- Plant response rating, P. morninglory [2, 17]: 20
- Plant response rating, P. morninglory [2, 18]: 20
- Plant response rating, P. morninglory [2, 19]: 40
- Plant response rating, P. morninglory ([2]; Rate 250 g/ha): 65
- Plant response rating, P. morninglory ([2]; Rate 500 g/ha): 85
- Plant response rating, C. ragweed [3, 16]: 0
- Plant response rating, C. ragweed [3, 17]: 0
- Plant response rating, C. ragweed [3, 18]: 0
- Plant response rating, C. ragweed [3, 19]: 0
- Plant response rating, C. ragweed ([3]; Rate 250 g/ha): 40
- Plant response rating, C. ragweed ([3]; Rate 500 g/ha): 45
- Plant response rating, C. purslane [4, 16]: 0
- Plant response rating, C. purslane [4, 17]: 0
- Plant response rating, C. purslane [4, 18]: 0
- Plant response rating, C. purslane [4, 19]: 0
- Plant response rating, C. purslane ([4]; Rate 250 g/ha): 0
- Plant response rating, C. purslane ([4]; Rate 500 g/ha): 10
- Plant response rating, Large crabgrass [5, 16]: 30
- Plant response rating, Large crabgrass [5, 17]: 85
- Plant response rating, Large crabgrass [5, 18]: 100
- Plant response rating, Large crabgrass [5, 19]: 100
- Plant response rating, Large crabgrass ([5]; Rate 250 g/ha): 100
- Plant response rating, Large crabgrass ([5]; Rate 500 g/ha): 100
- Plant response rating, Sandbur [6, 16]: 0
- Plant response rating, Sandbur [6, 17]: 0
- Sandbur plant response rating [6, 18]: 40
- Sandbur plant response rating [6, 19]: 40
- Plant response rating, Sandbur ([6]; Rate 250 g/ha): 40
- Plant response rating, Sandbur ([6]; Rate 500 g/ha): 98
- Plant response rating, Johnsongrass [7, 16]: 0
- Plant response rating, Johnsongrass [7, 17]: 0
- Plant response rating, Johnsongrass [7, 18]: 0
- Plant response rating, Johnsongrass [7, 19]: 75
- Plant response rating, Johnsongrass ([7]; Rate 250 g/ha): 100
- Plant response rating, Johnsongrass ([7]; Rate 500 g/ha): 95
- Plant response rating, Tall Mallow [8, 16]: 30
- Plant response rating, Tall Mallow [8, 17]: 30
- Tall Mallow plant response rating [8, 18]: 30
- Tall Mallow plant response rating [8, 19]: 30
- Plant response rating, Tall Mallow ([8]; Rate 250 g/ha): 40
- Plant response rating, Tall Mallow ([8]; Rate 500 g/ha): 45
- Plant response rating, Com. groundsel [9, 16]: 0
- Plant response rating, Com. groundsel [9, 17]: 0
- Plant response rating, Com. groundsel [9, 18]: 0
- Plant response rating, Com. groundsel [9, 19]: 45
- Plant response rating, Com. groundsel ([9]; Rate 250 g/ha): 45
- Plant response rating, Com. groundsel ([9]; Rate 500 g/ha): 100
- Plant response rating, Purple nutsedge [10, 16]: 0
- Plant response rating, Purple nutsedge [10, 17]: 0
- Purple nutsedge plant response rating [10, 18]: 0
- Purple nutsedge plant response rating [10, 19]: 0
- Plant response rating, Purple nutsedge ([10]; Rate 250 g/ha): 65
- Plant response rating, Purple nutsedge ([10]; Rate 500 g/ha): 65
- Plant response rating, Goosegrass [11, 16]: 50
- Plant response rating, Goosegrass [11, 17]: 65
- Plant response rating, Goosegrass [11, 18]: 75
- Plant response rating, Goosegrass [11, 19]: 75
- Plant response rating, Goosegrass ([11]; Rate 250 g/ha): 98
- Plant response rating, Goosegrass ([11]; Rate 500 g/ha): 100
- Plant response rating, Spanishneedles [12, 16]: 0
- Plant response rating, Spanishneedles [12, 17]: 0
- Spanishneedles plant response rating [12, 18]: 0
- Spanishneedles plant response rating [12, 19]: 0
- Plant response rating, Spanishneedles ([12]; Rate 250 g/ha): 40
- Plant response rating, Spanishneedles ([12]; Rate 500 g/ha): 85
- Plant response rating, Guineagrass [13, 16]: 0
- Plant response rating, Guineagrass [13, 17]: 85
- Plant response rating, Guineagrass [13, 18]: 98
- Plant response rating, Guineagrass [13, 19]: 100
- Plant response rating, Guineagrass ([13]; Rate 250 g/ha): 100
- Plant response rating, Guineagrass ([13]; Rate 500 g/ha): 100
- Plant response rating, Itchgrass [14, 16]: 0
- Plant response rating, Itchgrass [14, 17]: 0
- Plant response rating, Itchgrass [14, 18]: 0
- Plant response rating, Itchgrass [14, 19]: 30
- Plant response rating, Itchgrass ([14]; Rate 250 g/ha): 45
- Plant response rating, Itchgrass ([14]; Rate 500 g/ha): 50
- Plant response rating, Alexandergrass [15, 16]: 20
- Plant response rating, Alexandergrass [15, 17]: 20
- Plant response rating, Alexandergrass [15, 18]: 30
- Plant response rating, Alexandergrass [15, 19]: 85
- Plant response rating, Alexandergrass ([15]; Rate 250 g/ha): 98
- Plant response rating, Alexandergrass ([15]; Rate 500 g/ha): 100
